# From ChEMBL document CHEMBL1147502, “Isopropyl amide derivatives of potent and selective muscarinic M2 receptor antagonists” (Bioorg Med Chem Lett, 2004)
# Target: T1, Muscarinic acetylcholine receptor M2 (Homo sapiens, UniProt P08172)
# T1 sequence (P08172 whole entry): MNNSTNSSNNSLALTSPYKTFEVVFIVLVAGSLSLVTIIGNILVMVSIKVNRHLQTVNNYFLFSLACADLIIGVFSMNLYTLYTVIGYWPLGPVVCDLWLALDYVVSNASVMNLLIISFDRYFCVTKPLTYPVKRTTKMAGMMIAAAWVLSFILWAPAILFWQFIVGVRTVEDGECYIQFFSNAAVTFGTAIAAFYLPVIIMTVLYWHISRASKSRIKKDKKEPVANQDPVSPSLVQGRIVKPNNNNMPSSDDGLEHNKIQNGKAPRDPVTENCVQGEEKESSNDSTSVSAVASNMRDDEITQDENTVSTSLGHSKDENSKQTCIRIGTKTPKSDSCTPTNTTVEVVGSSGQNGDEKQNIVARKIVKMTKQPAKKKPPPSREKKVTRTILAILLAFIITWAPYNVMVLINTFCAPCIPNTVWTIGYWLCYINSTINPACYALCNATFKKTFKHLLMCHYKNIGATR
# Assay: Binding affinity against cloned human muscarinic acetylcholine receptor M2.
row,Structure (SMILES),Ki [nM]
1,CC(C)NC(=O)c1ccc(C2(C3CCN(C4CCN(C(=O)c5ccccc5Cl)CC4)CC3)OCCO2)cc1,35
2,Cc1cccc(C(=O)N2CCC(N3CCC(Cc4ccc(C(=O)NC(C)C)cc4)CC3)CC2)c1N,9
3,Cc1ccccc1C(=O)N1CCC(N2CCC(Cc3ccc(C(=O)Nc4ccccc4)cc3)CC2)CC1,122
4,CC(C)(C)NC(=O)c1ccc(CC2CCN(C3CCN(C(=O)c4ccc(F)c5ccccc45)CC3)CC2)cc1,18
5,CC(C)S(=O)(=O)c1ccc(CC2CCN(C3CCN(C(=O)c4ccc(F)c5ccccc45)CC3)CC2)cc1,17
6,Cc1ccccc1C(=O)N1CCC(N2CCC(Cc3ccc(C(=O)NC(C)(C)C)cc3)CC2)CC1,106
7,CC(C)NC(=O)c1ccc(CC2CCN(C3CCN(C(=O)c4ccccc4Cl)CC3)CC2)cc1,12
8,O=C(Nc1ccccc1)c1ccc(CC2CCN(C3CCN(C(=O)c4ccc(F)c5ccccc45)CC3)CC2)cc1,104
9,CC(C)NC(=O)c1ccc(CC2CCN(C3CCN(C(=O)c4cccc5nc[nH]c45)CC3)CC2)cc1,27
10,CC(C)NC(=O)c1ccc(CC2CCN(C3CCN(C(=O)c4ccc(F)c5c(F)cccc45)CC3)CC2)cc1,9
11,CC(C)NC(=O)c1ccc(CC2CCN(C3CCN(C(=O)c4ccccc4N)CC3)CC2)cc1,78
12,CC(C)NC(=O)c1ccc(CC2CCN(C3CCN(C(=O)c4ccnc5ccccc45)CC3)CC2)cc1,40
13,O=C(NC1CCCCC1)c1ccc(CC2CCN(C3CCN(C(=O)c4ccc(F)c5ccccc45)CC3)CC2)cc1,1300
14,Cc1ccccc1C(=O)N1CCC(N2CCC(C3(c4ccc(C(=O)NC(C)C)cc4)OCCO3)CC2)CC1,9
15,Cc1ccccc1C(=O)N1CCC(N2CCC(Cc3ccc(C(=O)NC4CCCCC4)cc3)CC2)CC1,15

# Molecules with a lower Ki, results first:
row,Ki [nM],Structure (SMILES)
1,7,Cc1ccccc1C(=O)N1CCC(N2CCC(Cc3ccc(C(=O)NC(C)C)cc3)CC2)CC1
2,6,CC(C)NC(=O)c1ccc(CC2CCN(C3CCN(C(=O)c4c[nH]c5ccccc45)CC3)CC2)cc1
3,5,CC(C)NC(=O)c1ccc(CC2CCN(C3CCN(C(=O)c4cccc5c(F)cc(F)cc45)CC3)CC2)cc1
4,5,CC(C)NC(=O)c1ccc(CC2CCN(C3CCN(C(=O)c4ccc5[nH]ccc5c4)CC3)CC2)cc1
5,2.7,Cc1cccc(C(=O)N2CCC(N3CCC(C4(c5ccc(C(=O)NC(C)C)cc5)OCCO4)CC3)CC2)c1N
6,2.4,CC(C)NC(=O)c1ccc(C2(C3CCN(C4CCN(C(=O)c5ccc(F)c6ccccc56)CC4)CC3)OCCO2)cc1
7,2.1,CC(C)NC(=O)c1ccc(CC2CCN(C3CCN(C(=O)c4ccc(F)c5ccccc45)CC3)CC2)cc1
8,1.9,Cc1c(N)cccc1C(=O)N1CCC(N2CCC(C3(c4ccc(C(=O)NC(C)C)cc4)OCCO3)CC2)CC1
9,1.6,Cc1c(N)cccc1C(=O)N1CCC(N2CCC(Cc3ccc(C(=O)NC(C)C)cc3)CC2)CC1
10,1.6,CC(C)NC(=O)c1ccc(CC2CCN(C3CCN(C(=O)c4cccc5[nH]ccc45)CC3)CC2)cc1
11,1.1,CC(C)NC(=O)c1ccc(C2(C3CCN(C4CCN(C(=O)c5cccc6[nH]ccc56)CC4)CC3)OCCO2)cc1
